Test results taken from patent US20080275076A1, “Pharmaceutical Compositions Comprising Sirolimus and/or an Analogue Thereof” (priority 2005, published 2008).
Read-outs that look alike come from different tables or passages of the source.

What was measured:
[1] = Solubility of sirolimus in various vehicles at 70° C. (visual inspection); type: physicochemical
Experimental: In the following table is given the solubility of sirolimus in various vehicles (please note that the solubility is determined by visual inspection): […]

[2] = cited from earlier work

CO[C@H]1C[C@@H]2CC[C@@H](C)[C@@](O)(O2)C(=O)C(=O)N2CCCC[C@H]2C(=O)O[C@H]([C@H](C)C[C@@H]2CC[C@@H](O)[C@H](OC)C2)CC(=O)[C@H](C)/C=C(\C)[C@@H](O)[C@@H](OC)C(=O)[C@H](C)C[C@H](C)/C=C/C=C/C=C/1C [Sirolimus]
% Sirolimus dissolved 70° C. ([1]; vehicle Gelucire 44/14): 2.5% | % Sirolimus dissolved 70° C. ([1]; vehicle Monomuls 90 35): 2.2% | % Sirolimus dissolved 70° C. ([1]; vehicle Monomuls 90L12): 3.9% | % Sirolimus dissolved 70° C. ([1]; vehicle Monomuls 90 L12/Rylo MD50 (10:90)): 2.5% | % Sirolimus dissolved 70° C. ([1]; vehicle PEG 6000): 1.5% | % Sirolimus dissolved 70° C. ([1]; vehicle PEG 6000/Poloxamer 188 (70:30)): 2.4% | % Sirolimus dissolved 70° C. ([1]; vehicle Poloxamer 188): 1.0% | % Sirolimus dissolved 70° C. ([1]; vehicle Rylo MD50): 1.5% | mean time-to-peak concentration (tmax) ([2]; multiple oral doses in renal transplant recipients): approximately 2 hours | mean time-to-peak concentration (tmax) ([2]; oral, single dose in healthy subjects): approximately 1 hour
